Measured values taken from patent US20100120810A1, “COMPOUNDS AND METHODS FOR MODULATING RHO GTPASES” (priority 2007, published 2010).
Where a name gives a salt, the structure may show the parent alone. Read-outs that look alike come from different tables or passages of the source.

Experiments:
Format in all cases: biochemical
[1] = biological target: T1, Rac1 activated by DH/PH domain of Guanine nucleotide Exchange Factor Tiam1 (Rac1/Tiam1) (Homo sapiens, UniProt P63000); experiment: Nucleotide binding assay: BODIPY-GTP binding to Rac1 activated by Tiam1 DH/PH; details: for inhibition at 50 µM: read-out: Rac1 % inhibition of BODIPY-GTP binding
T1 construct: made in house; host or cells: E. coli BL21 Codon+RIL
Procedure: (§1) Fluorescence of GTP analog BODIPY-GTP increases when it binds to small G proteins. This property was used to assess ability of compounds to inhibit nucleotide binding to Rac1, Rac1b and Cdc42. 2 μM GST-Rac1 and 6 μg His6-Tiam1-DH/PH were diluted in a buffer containing 20 mM Tris, 50 mM NaCl, and 1 mM MgCl2. This mixture was loaded in a 96-well plate. Fluorescence recording were started (λEx: 485 nm; λEm: 538 nm) using a spectrofluorimeter (Fluoroskan; Thermolab Systems). Assay was initiated by the addition of 2 μM BODIPY-GTP with or without various doses of test compound. Fluorescence values were recorded, and data were processed as follows: background fluorescence (unbound BODIPY-GTP) was retrieved from fluorescence values.
(§2) This assay allows determining whether compounds can inhibit the binding of a fluorescent nucleotide to recombinant small G proteins of interest. The effect of various alkaloid compounds on binding of BODIPY-GTP to Rac1 activated by DH/PH domain of Guanine nucleotide Exchange Factor Tiam1 (Rac1/Tiam1), Rac1b and Cdc42 is described below.

[2] = biological target: T2, Cdc42 (Homo sapiens, UniProt P60953); experiment: Nucleotide binding assay: BODIPY-GTP binding to Cdc42; details: read-out: Cdc42 % inhibition of BODIPY-GTP binding
T2 construct: GST (N); made in house; host or cells: E. coli BL21 Codon+RIL
T2 sequence (P60953 whole entry, species assumed): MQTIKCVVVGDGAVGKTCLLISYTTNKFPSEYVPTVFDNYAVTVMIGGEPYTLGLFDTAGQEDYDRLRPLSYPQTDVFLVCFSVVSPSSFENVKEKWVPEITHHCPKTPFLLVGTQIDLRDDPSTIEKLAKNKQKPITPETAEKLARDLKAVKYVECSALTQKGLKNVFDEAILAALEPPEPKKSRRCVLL
Procedure: as §1, §2

[3] = biological target: T3, Rac1b (Homo sapiens, UniProt P63000); experiment: Nucleotide binding assay: BODIPY-GTP binding to Rac1b; details: for inhibition at 50 µM: read-out: Rac1b % inhibition of BODIPY-GTP binding
T3 construct: GST (N); made in house; host or cells: E. coli BL21 Codon+RIL
Procedure: as §1, §2

[4] = final concentration of 50 μM, Rac1/Tiam1
[5] = dose-response study (1-2-5-10-25-50-75-100 μM)

| SMILES | inhibition at 50 µM [1, 4] [%] | inhibition at 50 µM ([2]; final concentration of 50 μM) [%] | inhibition at 50 µM ([3]; final concentration of 50 μM) [%] | inhibition at 50 µM [1] [%] | inhibition at 50 µM [2] [%] | inhibition at 50 µM [3] [%] | maximum inhibition on Rac1/Tiam1 [1, 5] [%] | maximum inhibition on Rac1b [3, 5] [%] |
| --- | --- | --- | --- | --- | --- | --- | --- | --- |
| COc1ccc2c(c1OC)C(Cc1ccccc1)N1CCc3cc4c(cc3C1=C2)OCO4 (centres unmarked) [Compound 11, 8-benzyl-9,10-dimethoxy-5,8-dihydro-2H-6H-[1,3]dioxolo[4,5-g]isoquino[3,2-a]isoquinoline] | -1 ± 2 | 1 ± 1 | -2 ± 3 | – | – | – | – | – |
| COc1ccc(-c2cc3cc(OC)c(OC)cc3c(C)n2)cc1 [Compound 40, 6,7-Dimethoxy-3-(4-methoxyphenyl)-1-methylisoquinolinylium chloride] | 15 ± 3 | 14 ± 1 | 17 ± 3 | – | – | – | – | – |
| COc1cc2cc(-c3ccc4c(c3)OCO4)[n+](C)c(C)c2cc1OC [Compound 22, 3-(Benzo[d][1,3]dioxol-5-yl)-6,7-dimethoxy-1,2-dimethylisoquinolinium chloride] | 12 ± 2 | 14 ± 3 | 18 ± 2 | – | – | – | – | – |
| COc1cc2cc(-c3cccnc3)nc(C)c2cc1OC [Compound 36, 6,7-Dimethoxy-1-methyl-3-(pyridin-3-yl)isoquinoline dihydrochloride] | 10 ± 3 | -4 ± 13 | 12 ± 3 | – | – | – | – | – |
| COc1ccc(Cc2nccc3cc(OC)c(OC)cc23)cc1OC [Compound 9, 1-(3,4-dimethoxybenzyl)-6,7-dimethoxyisoquinoline hydrochloride, reference compound] | – | – | – | 1 ± 2 | 2 ± 2 | 5 ± 2 | – | – |
| COc1cc2cc(-c3cccc(C(C)=O)c3)[n+](C)c(C)c2cc1OC [Compound 25, 3-(3-Acetylphenyl)-6,7-dimethoxy-1,2-dimethylisoquinolinium chloride] | 20 ± 3 | 7 ± 1 | 29 ± 3 | – | – | – | – | – |
| COc1cc2cc(-c3ccc(C)cc3)nc(C)c2cc1OC [Compound 43, 6,7-Dimethoxy-1-methyl-3-p-tolylisoquinolinylium chloride] | 19 ± 1 | 15 ± 2 | 17 ± 2 | – | – | – | – | – |
| COc1ccc2c(c1OC)C(c1ccccc1)N1CCc3cc4c(cc3C1=C2)OCO4 (centres unmarked) [Compound 10, 9,10-dimethoxy-8-phenyl-5,8-dihydro-2H-6H-[1,3]dioxolo[4,5-g]isoquino[3,2-a]isoquinoline] | 18 ± 2 | 17 | 27 ± 2 | – | – | – | – | – |
| COc1cc2cc(-c3cccc(NC(C)=O)c3)nc(C)c2cc1OC [Compound 31, N-(3-(6,7-Dimethoxy-1-methylisoquinolin-3-yl)phenyl)acetamide hydrochloride] | -1 ± 2 | 10 ± 1 | 10 ± 3 | – | – | – | – | – |
| COc1ccc2c(c1OC)CN1CCc3cc(O)c(O)cc3C1C2 (racemic) [Compound 17, (±)-9,10-Dimethoxy-5,8,13,13a-tetrahydro-6H-isoquino[3,2-a]isoquinoline-2,3-diol hydrochloride] | – | – | – | 5 ± 3 | -13 ± 12 | -7 ± 4 | – | – |
| CCc1cc2c(cc1C1Cc3ccc(OC)c(OC)c3CN1C)OCO2 (racemic) [Compound 20, (±)-3-(6-Ethylbenzo[d][1,3]dioxol-5-yl)-7,8-dimethoxy-2-methyl-1,2,3,4-tetrahydroisoquinolinylium chloride] | 4 ± 4 | 8 ± 3 | -6 ± 10 | – | – | – | – | – |
| COc1ccc2c(c1OC)C[N+]1(Cc3ccccc3)CCc3cc4c(cc3C1C2)OCO4 (racemic) [Compound 5, (±)-7-benzyl-9,10-dimethoxy-5,8,13,13a-tetrahydro-6H-[1,3]dioxolo[4,5-g]isoquino[3,2-a]isoquinolinylium bromide] | 9 ± 2 | 3 ± 1 | 16 ± 2 | – | – | – | – | – |
| Oc1cc2c(cc1O)-c1cc3ccc(O)c(O)c3c[n+]1CC2 [Compound 6, 5,6-dihydro-isoquino[3,2-a]isoquinolinylium-2,3,9,10-tetraol chloride] | – | 100 | – | – | – | – | – | – |
| COc1ccc2cc3[n+](cc2c1OC)CCc1cc2c(cc1-3)OCO2 [Compound 1, Berberine chloride, reference compound] | 15 ± 2 | 8 ± 2 | 23 ± 2 | – | – | – | 19±1 | 29±1 |
| COc1ccc2c(c1OC)C(Cc1ccccc1)N1CCc3cc4c(cc3C1C2)OCO4 (racemic) [Compound 12, (±)-8-Benzyl-9,10-dimethoxy-5,8,13,13a-tetrahydro-6H-[1,3]dioxolo[4,5-g]isoquino[3,2-a]isoquinoline hydrochloride] | 23 ± 3 | 9 ± 2 | 31 ± 4 | – | – | – | – | – |
| COc1cc2c(cc1OC)CN(Cc1cccc(OC)c1OC)CC2 [Compound 7, 2-(2,3-Dimethoxybenzyl)-6,7-dimethoxy-1,2,3,4-tetrahydroisoquinoline hydrochloride] | 0 | -1 ± 1 | 6 ± 3 | – | – | – | – | – |
| COc1cc2cc(-c3ccc(Cl)c(Cl)c3)nc(C)c2cc1OC [Compound 39, 3-(3,4-Dichlorophenyl)-6,7-dimethoxy-1-methylisoquinolinylium chloride] | 17 ± 7 | 5 ± 1 | 42 ± 7 | – | – | – | – | – |
| COc1cc2c(cc1OC)CN(Cc1cccc(O)c1O)CC2 [Compound 18, 2-(2,3-Dihydroxybenzyl)-6,7-dimethoxy-1,2,3,4-tetrahydroisoquinolinium chloride] | 1 ± 2 | -8 ± 10 | 4 ± 3 | – | – | – | – | – |
| COc1cc2cc3c4cc(OC)c(OC)cc4cc[n+]3c(C)c2cc1OC [Compound 8, 8-methyl-2,3,10,11-tetramethoxydibenzo[a,g]quinolizinium chloride, hydrate, reference compound] | – | – | – | 36 ± 4 | 21 ± 2 | 44 ± 4 | – | – |
| COc1cc2cc(-c3ccccc3)[n+](C)cc2cc1OC [Compound 50, 6,7-Dimethoxy-2-methyl-3-phenylisoquinolinium chloride] | 3 ± 5 | 10 ± 6 | 10 ± 5 | – | – | – | – | – |
| COc1cc2cc(-c3ccc(C(=O)OC(C)C)cc3)nc(C)c2cc1OC [Compound 32, Isopropyl 4-(6,7-dimethoxy-1-methylisoquinolin-3-yl)benzoate hydrochloride] | 4 ± 5 | 2 ± 1 | 10 ± 4 | – | – | – | – | – |
| CNC(=O)c1ccc(-c2cc3cc(OC)c(OC)cc3c(C)n2)cc1 [Compound 34, 4-(6,7-Dimethoxy-1-methylisoquinolin-3-yl)-N-methylbenzamide] | -2 ± 3 | 3 ± 5 | 3 ± 3 | – | – | – | – | – |
| COc1cc2cc(-c3ccc(Cl)cc3)nc(C)c2cc1OC [Compound 42, 3-(4-Chlorophenyl)-6,7-dimethoxy-1-methylisoquinolinylium chloride] | 18 ± 3 | 11 ± 2 | 17 ± 3 | – | – | – | – | – |
| COc1cc2cc(-c3cccc(N(S(C)(=O)=O)S(C)(=O)=O)c3)nc(C)c2cc1OC [Compound 29, N-(3-(6,7-Dimethoxy-1-methylisoquinolin-3-yl)phenyl)-N-(methylsulfonyl)methanesulfonamide hydrochloride] | -5 ± 2 | 2 ± 4 | -2 ± 2 | – | – | – | – | – |
| COc1cc2cnc(-c3ccccc3)cc2cc1OC [Compound 49, 6,7-Dimethoxy-3-phenylisoquinolinium chloride] | 1 ± 5 | 2 ± 6 | 2 ± 4 | – | – | – | – | – |
| COc1ccc(-c2cc3cc(OC)c(OC)cc3c(C)n2)cn1 [Compound 35, 6,7-Dimethoxy-3-(6-methoxypyridin-3-yl)-1-methylisoquinoline dimethanesulfonate] | 6 ± 4 | 11 ± 2 | 6 ± 2 | – | – | – | – | – |
| COc1cc2cc(-c3ccccc3NC(C)=O)nc(C)c2cc1OC [Compound 38, N-(2-(6,7-Dimethoxy-1-methylisoquinolin-3-yl)phenyl)acetamide] | 1 ± 3 | 3 ± 7 | 0 | – | – | – | – | – |
| COc1cc2cc(-c3ccc4c(c3)OCO4)nc(C)c2cc1OC [Compound 21, 3-(Benzo[d][1,3]dioxol-5-yl)-6,7-dimethoxy-1-methylisoquinoline hydrochloride] | 13 ± 2 | 18 ± 2 | 12 ± 2 | – | – | – | – | – |
| COc1ccc2c(c1OC)CN1CCc3cc4c(cc3C1C2)OCO4 (racemic) [Compound 3, (±)-Canadine hydrochloride] | – | – | – | 1 ± 3 | – | -7 ± 4 | – | – |
